Results as given in ChEMBL document CHEMBL3885861, “Open TG-GATES”.

Organism: Rattus norvegicus
Assay: Open TG-GATES - Regimen: Single
Type: toxicity, organism-based, Sprague-Dawley
Design: regimen Single, gender Male, age 6 weeks
Details: in vivo, po, route gavage; for APTT / Bas / Eos / Fbg / Hb / Ht / Lym / MCHC / MCV / Mono / PT / Plat / RBC / Ret / WBC: tissue Blood; for KIDNEY_L / KIDNEY_R / KIDNEY_TOTAL: tissue Kidney; for LIVER: tissue Liver; for ALP / ALT / AST / BUN / CRE / Ca / Cl / DBIL / IP / LDH / Na / PL / RALB / TBIL / TC / TG / TP / gamma-GTP: tissue Plasma
[1] = 0 mg/kg, 3 h, dose level Control
[2] = 0 mg/kg, 6 h, dose level Control
[3] = 0 mg/kg, 9 h, dose level Control
[4] = 0 mg/kg, 24 h, dose level Control

With `CC(C)N(CCC(C(N)=O)(c1ccccc1)c1ccccn1)C(C)C` (centres undefined) [DISOPYRAMIDE] the TERMINAL_BW [1] was 207.1 g, the APTT [1] was 21.7 s and the Bas [1] was 0%. The Eos [1] was 1%, the Fbg [1] was 318.8 mg/dL and the Hb [1] was 13.2 g/dL. For the same compound, the Ht [1] was 41.1%, the Lym [1] was 77.6% and the MCHC [1] was 32.1%. The MCV [1] was 64.4 fL, the Mono [1] was 2.6% and the PT [1] was 15.8 s. The Plat [1] was 117.3 x10_4/uL, the RBC [1] was 638.6 x10_4/ul and the Ret [1] was 8%. The WBC [1] was 84.7 x10_2/uL, the KIDNEY_L [1] was 0.9 g and the KIDNEY_R [1] was 0.9 g. It also gave a KIDNEY_TOTAL [1] of 1.9 g, an LIVER [1] of 9.6 g and an ALP [1] of 1747.4 IU/L. The ALT [1] was 51 IU/L, the AST [1] was 79.8 IU/L and the BUN [1] was 12.4 mg/dL. It also gave a CRE [1] of 0.2 mg/dL, a Ca [1] of 10.5 mg/dL and a Cl [1] of 108.2 meq/L. For the same compound, the DBIL [1] was 0 mg/dL, the IP [1] was 8.5 mg/dL and the LDH [1] was 193.8 IU/L. The Na [1] was 141.8 meq/L, the PL [1] was 122.6 mg/dL and the RALB [1] was 2.9 g/dL. For the same compound, the TBIL [1] was 0.006 mg/dL, the TC [1] was 69 mg/dL and the TG [1] was 45.4 mg/dL. It also gave a TP [1] of 5.4 g/dL, a gamma-GTP [1] of 1.4 IU/L and a TERMINAL_BW [2] of 210.2 g. It also gave an APTT [2] of 22.4 s, a Bas [2] of 0% and an Eos [2] of 0.4%. The Fbg [2] was 310.2 mg/dL, the Ht [2] was 39.9% and the Lym [2] was 80.8%. It also gave an MCHC [2] of 32%, an MCV [2] of 64.8 fL and a Mono [2] of 2.6%. It also gave a PT [2] of 15.7 s, a Plat [2] of 122.8 x10_4/uL and an RBC [2] of 615.4 x10_4/ul. For the same compound, the Ret [2] was 7.8%, the WBC [2] was 110.6 x10_2/uL and the KIDNEY_L [2] was 1 g. It also gave a KIDNEY_R [2] of 1 g, a KIDNEY_TOTAL [2] of 1.9 g and an LIVER [2] of 9.3 g. It also gave an ALT [2] of 42.4 IU/L, an AST [2] of 73.2 IU/L and a BUN [2] of 13 mg/dL. It also gave a CRE [2] of 0.1 mg/dL, a Ca [2] of 10.8 mg/dL and a Cl [2] of 105.6 meq/L. It also gave a DBIL [2] of 0 mg/dL, an IP [2] of 9.3 mg/dL and an LDH [2] of 164.8 IU/L. For the same compound, the Na [2] was 140.6 meq/L, the PL [2] was 135 mg/dL and the RALB [2] was 2.9 g/dL. It also gave a TBIL [2] of 0.004 mg/dL, a TC [2] of 72.6 mg/dL and a TG [2] of 91 mg/dL. For the same compound, the TP [2] was 5.5 g/dL, the gamma-GTP [2] was 1.2 IU/L and the TERMINAL_BW [3] was 204.9 g. It also gave an APTT [3] of 22.5 s, a Bas [3] of 0% and an Eos [3] of 0.4%. It also gave a Fbg [3] of 300.8 mg/dL, a Hb [3] of 12.9 g/dL and a Ht [3] of 40%. The Lym [3] was 80.6%, the MCHC [3] was 32.3% and the MCV [3] was 62.7 fL. For the same compound, the Mono [3] was 2.6%, the PT [3] was 15.9 s and the Plat [3] was 113.2 x10_4/uL. The RBC [3] was 638.2 x10_4/ul, the Ret [3] was 7.5% and the WBC [3] was 90.9 x10_2/uL. The KIDNEY_L [3] was 1 g, the KIDNEY_R [3] was 1 g and the KIDNEY_TOTAL [3] was 2 g. The LIVER [3] was 8.8 g, the ALP [3] was 1336.4 IU/L and the ALT [3] was 41.6 IU/L. For the same compound, the AST [3] was 72.8 IU/L, the BUN [3] was 13.4 mg/dL and the CRE [3] was 0.1 mg/dL. The Ca [3] was 10.5 mg/dL, the Cl [3] was 106.6 meq/L and the DBIL [3] was 0.002 mg/dL. For the same compound, the IP [3] was 9.2 mg/dL, the LDH [3] was 146.8 IU/L and the Na [3] was 141.6 meq/L. It also gave a PL [3] of 116.8 mg/dL, an RALB [3] of 2.9 g/dL and a TBIL [3] of 0.002 mg/dL. For the same compound, the TC [3] was 62.4 mg/dL, the TG [3] was 61.4 mg/dL and the TP [3] was 5.4 g/dL. It also gave a gamma-GTP [3] of 1.2 IU/L, a TERMINAL_BW [4] of 222.5 g and an APTT [4] of 21.9 s. For the same compound, the Bas [4] was 0%, the Eos [4] was 1% and the Fbg [4] was 317 mg/dL. The Hb [4] was 13.2 g/dL, the Ht [4] was 40.9% and the Lym [4] was 82.6%. It also gave an MCHC [4] of 32.3%, an MCV [4] of 65 fL and a Mono [4] of 2.4%. The PT [4] was 16 s, the Plat [4] was 117 x10_4/uL and the RBC [4] was 629.4 x10_4/ul. It also gave a Ret [4] of 7.9%, a WBC [4] of 80.5 x10_2/uL and a KIDNEY_L [4] of 1 g. It also gave a KIDNEY_R [4] of 1 g, a KIDNEY_TOTAL [4] of 2 g and an LIVER [4] of 10.6 g. For the same compound, the ALP [4] was 1631 IU/L, the ALT [4] was 53.6 IU/L and the AST [4] was 78.6 IU/L. The BUN [4] was 17 mg/dL, the CRE [4] was 0.2 mg/dL and the Ca [4] was 10.7 mg/dL. It also gave a Cl [4] of 105 meq/L, a DBIL [4] of 0 mg/dL and an IP [4] of 7.8 mg/dL. It also gave an LDH [4] of 192.4 IU/L, a PL [4] of 143.2 mg/dL and an RALB [4] of 3 g/dL. It also gave a TBIL [4] of 0 mg/dL, a TC [4] of 71.8 mg/dL and a TG [4] of 104 mg/dL. It also gave a TP [4] of 5.5 g/dL, a gamma-GTP [4] of 2 IU/L and a TERMINAL_BW (40 mg/kg, 3 h, dose level Low) of 208.4 g. It also gave an APTT (40 mg/kg, 3 h, dose level Low) of 23 s, a Bas (40 mg/kg, 3 h, dose level Low) of 0% and an Eos (40 mg/kg, 3 h, dose level Low) of 1%. It also gave a Fbg (40 mg/kg, 3 h, dose level Low) of 313.4 mg/dL.
